In patent EP3807270B1, “NOVEL HETEROARYL HETEROCYCLYL COMPOUNDS FOR THE TREATMENT OF AUTOIMMUNE DISEASE” (F. Hoffmann-La Roche AG, priority 2018, dated 2019):

Molecular target: T1, human TLR8 (Homo sapiens, UniProt Q9NR97)
T1 construct: host or cells: HEK293 (HEK-Blue)
T1 sequence (Q9NR97 27-1041): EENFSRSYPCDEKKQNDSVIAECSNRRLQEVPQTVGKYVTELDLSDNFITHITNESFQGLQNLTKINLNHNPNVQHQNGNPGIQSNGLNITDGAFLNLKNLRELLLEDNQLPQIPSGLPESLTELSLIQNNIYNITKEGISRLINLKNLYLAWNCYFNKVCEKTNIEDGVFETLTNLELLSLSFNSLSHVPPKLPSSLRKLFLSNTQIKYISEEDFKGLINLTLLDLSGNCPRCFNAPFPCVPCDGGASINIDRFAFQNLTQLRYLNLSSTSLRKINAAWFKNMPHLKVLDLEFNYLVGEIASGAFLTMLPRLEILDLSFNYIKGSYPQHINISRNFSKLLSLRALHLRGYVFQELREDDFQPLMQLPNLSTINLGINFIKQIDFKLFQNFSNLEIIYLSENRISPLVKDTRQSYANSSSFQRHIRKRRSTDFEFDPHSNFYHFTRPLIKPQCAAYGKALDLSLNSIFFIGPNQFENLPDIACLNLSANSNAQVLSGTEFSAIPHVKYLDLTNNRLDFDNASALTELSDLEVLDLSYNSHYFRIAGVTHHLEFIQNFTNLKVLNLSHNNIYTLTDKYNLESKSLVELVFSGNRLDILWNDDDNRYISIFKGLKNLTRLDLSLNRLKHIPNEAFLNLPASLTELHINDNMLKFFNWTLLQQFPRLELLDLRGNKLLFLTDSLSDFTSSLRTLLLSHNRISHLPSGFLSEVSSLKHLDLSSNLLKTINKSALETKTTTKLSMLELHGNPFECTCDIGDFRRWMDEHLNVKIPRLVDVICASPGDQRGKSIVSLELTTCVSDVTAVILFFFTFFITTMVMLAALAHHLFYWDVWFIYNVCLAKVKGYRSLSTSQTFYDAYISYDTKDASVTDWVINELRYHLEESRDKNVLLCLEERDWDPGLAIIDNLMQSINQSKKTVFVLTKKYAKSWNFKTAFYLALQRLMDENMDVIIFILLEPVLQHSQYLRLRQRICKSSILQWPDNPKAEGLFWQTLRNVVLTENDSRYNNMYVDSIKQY
Experiment: HEK293-Blue-hTLR-8 cells assay (SEAP reporter, R848 stimulation)
Type: cell-based
Conditions: HEK293-Blue-hTLR8 cells, R848, 20 hrs; read-out: HEK/hTLR8 IC50
How it was run: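 HEK293-Blue-hTLR8 cells (NF-κB/AP-1-driven SEAP) in DMEM/10% FBS were treated with serially diluted compound (1% DMSO final) plus R848 for 20 hrs at 37 °C. Supernatant SEAP was measured with QUANTI-Blue after 2 hrs at 37 °C, absorbance 620-655 nm; antagonism seen as reduced reporter.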

Structure (SMILES)	IC50
COC1CNCc2ccc(N3CCN(C[C@H]4CN(c5ccc(C#N)c6ncccc56)C[C@@H](C)O4)CC3)cc21 (stereo partly drawn) [Example 58, 5-[(2S,6R)-2-[[4-(4-methoxy-1,2,3,4-tetrahydroisoquinolin-6-yl)piperazin-1-yl]methyl]-6-methyl-morpholin-4-yl]quinoline-8-carbonitrile]	15 nM
C[C@@H]1CN(c2ccc(C#N)c3ncccc23)C[C@H](CN2CCN(c3ccc4c(c3)C(O)CN(C)C4)CC2)O1 (stereo partly drawn) [Example 59, 5-[(2S,6R)-2-[[4-(4-hydroxy-2-methyl-3,4-dihydro-1H-isoquinolin-6-yl)piperazin-1-yl]methyl]-6-methyl-morpholin-4-yl]quinoline-8-carbonitrile]	11 nM
Cc1nc2c(nc1N1CCN(C[C@H]3CN(c4ccc(C#N)c5ncccc45)C[C@@H](C)O3)CC1)CCNC2 [Example 60, 5-[(2R,6S)-2-methyl-6-[[4-(3-methyl-5,6,7,8-tetrahydropyrido[3,4-b]pyrazin-2-yl)piperazin-1-yl]methyl]morpholin-4-yl]quinoline-8-carbonitrile]	14 nM
C[C@@H]1CN(c2ccc(C#N)c3ncccc23)C[C@H](CN2CCN(c3ncnc4c3CNCC4)CC2)O1 [Example 61, 5-[(2R,6S)-2-methyl-6-[[4-(5,6,7,8-tetrahydropyrido[4,3-d]pyrimidin-4-yl)piperazin-1-yl]methyl]morpholin-4-yl]quinoline-8-carbonitrile]	10 nM
C[C@@H]1CN(c2ccc(C#N)c3ncccc23)C[C@H](CN2CCN(c3nccc4c3CCNC4)CC2)O1 [Example 62, 5-[(2R,6S)-2-methyl-6-[[4-(5,6,7,8-tetrahydro-2,6-naphthyridin-1-yl)piperazin-1-yl]methyl]morpholin-4-yl]quinoline-8-carbonitrile]	14 nM
C[C@@H]1CN(c2ccc(C#N)c3ncccc23)C[C@H](CN2CCN(c3ccc4c(n3)CNCC4)CC2)O1 [Example 69, 5-[(2R,6S)-2-methyl-6-[[4-(5,6,7,8-tetrahydro-1,7-naphthyridin-2-yl)piperazin-1-yl]methyl]morpholin-4-yl]quinoline-8-carbonitrile]	5 nM
C[C@@H]1CN(c2ccc(C#N)c3nccnc23)C[C@H](CN2CCN(c3cc4c(cn3)CCNC4)CC2)O1 [Example 80, 8-[(2R,6S)-2-methyl-6-[[4-(5,6,7,8-tetrahydro-2,6-naphthyridin-3-yl)piperazin-1-yl]methyl]morpholin-4-yl]quinoxaline-5-carbonitrile]	7 nM
COc1ccc(N2CCN(C[C@H]3CN(c4ccc(C#N)c5ncccc45)C[C@@H](C)O3)CC2)cc1 [Example R1, 5-[(2S,6R)-2-[[4-(4-methoxyphenyl)piperazin-1-yl]methyl]-6-methyl-morpholin-4-yl]quinoline-8-carbonitrile, reference compound]	142 nM
C[C@@H]1CN(c2ccc(C#N)c3ncccc23)C[C@H](CN2CCN(c3ccc(Cl)cc3)CC2)O1 [Example R2, 5-[(2S,6R)-2-[[4-(4-chlorophenyl)piperazin-1-yl]methyl]-6-methyl-morpholin-4-yl]quinoline-8-carbonitrile, reference compound]	342 nM
